What was measured:
[1] = system: THP-1 human acute monocytic leukemia cells; experiment: Cytokine production by THP-1 cells (ELISA); type: cell-based; conditions: THP-1, 1×10^6 cells, 100 μg/ml, 48 h; for ↑ IL-12 (fold increase treated vs control cells): p70 complex and free p40
In short: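 1×10^6 cells exposed to 100 μg/ml of each oligonucleotide sequence for 48 h at 37° C in 5% CO2, unless stated otherwise. Cytokines quantified in culture supernatant by ELISA, IL-12 assay detecting both p70 and free p40; values are fold increase over untreated control cells.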

[2] = system: IMC tumor; conditions: premixed with IMC cells and injected into CDF-1 mice; cited from earlier work
[3] = system: Jurkat human leukemia T cells; experiment: Inhibition of Jurkat human leukemia T cell proliferation (MTT reduction); type: cell-based; conditions: 100 μg/ml sequence, 48 h, 2.5×10^5 cells/ml
In short: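 Jurkat cells at 2.5×10^5 cells/ml exposed to 100 μg/ml of 2–45-base A/C/G/T sequences (0 μg/ml control) for 48 h, 37° C, 5% CO2. Viability by MTT reduction read at 570 nm.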

[4] = target: T1, telomerase (Homo sapiens, UniProt O14746); experiment: PCR-telomeric repeat amplification protocol (TRAP) on Jurkat T cell extracts; type: biochemical; conditions: concentrations between 1 and 100 μg/ml, extracts from 2×10^5 Jurkat T cells
T1 construct: extracts from 2×10^5 Jurkat T cells were assayed using the PCR-telomeric repeat amplification protocol (TRAP); endogenous in cells; host or cells: Jurkat T cells (cell extract)
Procedure: To determine telomerase activity, extracts from 2×10^5 Jurkat T cells were assayed using the PCR-telomeric repeat amplification protocol (TRAP) (Roche, Laval, Québec, Canada).

[5] = system: OVCAR-3 human ovarian cancer cells; experiment: Inhibition of OVCAR-3 cell proliferation (MTT); type: cell-based; conditions: 100 μg/ml, 48 h, 5×10^5 cells/ml
Procedure: (§1) Cells were seeded in 6 (1 ml/well), 24 (0.5 ml/well) or 96 (0.1 ml/well) well flat-bottom microplates and were maintained at 37° C. in a 5% CO2 atmosphere. Unless stated otherwise, 2.5×10^5 cells/ml were incubated with 0 μg/ml (control) and 100 μg/ml (treated) of 2 to 45 base sequences containing A, C, G and T for 48 h.
(§2) Cell proliferation was measured using dimethylthiazol-diphenyl-tetrazolium (MTT) reduction (Mosman et al. J. Immunol. Methods 65:55, 1983). MTT was measured at a wavelength of 570 nm using a multiplate spectrophotometer reader (ELX800, Bio-TEK Instruments Inc., Winooski, Vt.).
OVCAR-3 ovarian cancer cells are a p53 mutated, p21/waf-1/Cip deleted, metastatic human solid tumor model. OVCAR-3 cells (5×10^5 cells/ml) were incubated with 2, 6 and 18 base GT sequences and with a 6 base AGT sequence (Table 11).

[6] = system: Jurkat human leukemia T cells; experiment: Cell cycle stage in Jurkat cells (propidium iodide flow cytometry); type: cell-based; conditions: Jurkat, 24 h, 100 μg/ml
In short: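 Exponentially growing Jurkat cells were exposed for 24 h to 2–45-base A/C/G/T oligonucleotides, or at 1×10^6 cells/ml to 6-base GT and AC strands, alone (heated 10 min, 65 °C) or hybridized 1:1. Detergent-, trypsin-, RNase- and spermine-treated nuclei were propidium iodide-stained and scored for G0/G1, early/mid/late S and G2/M by doublet-discriminating flow cytometry.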

[7] = system: SK-OV-3 human ovarian cancer cells; experiment: Inhibition of SK-OV-3 cell proliferation (MTT); type: cell-based; conditions: 100 μg/ml, 48 h, 5×10^5 cells/ml
Procedure: as §1, §2
SK-OV-3 ovarian cancer cells are a p53 mutated, p21/waf-1/Cip deleted, p15^ink4B deleted, p16^Ink4 deleted, metastatichuman solid tumor model. SK-OV-3 cells (5×10^5 cells/ml) were incubated with 2, 6 and 18 base GT sequences (Table 12).

[8] = system: MCF-7 human breast cancer cells; experiment: Cell cycle stage in MCF-7 cells (propidium iodide flow cytometry); type: cell-based; conditions: MCF-7, 5×10^5 cells/ml, 24 h
Procedure: Cell cycle stage was determined using a […]™ PLUS DNA commercial kit (Becton Dickinson). Briefly, nuclei from cells were obtained by dissolving the cell membrane in a nonionic detergent, eliminating the cell cytoskeleton and nuclear proteins with trypsin, digesting the cellular RNA with RNase and stabilizing the nuclear chromatin with spermine. Propidium iodide was added to the cell nuclei and their fluorescence was analyzed in a flow cytometer equipped with electronic doublet discrimination capability (FACSCalibur, Becton Dickinson, San Jose, Calif.). Accumulation of cells in G0/G1, early S (SE), mid S (SM), late S (SL) or G2/M phases of the cell cycle was analyzed using MODFIT LT software (Verity Software House Inc., Topsham, Mass.).
Exponentially growing Jurkat human leukemia T cells (Table 28) and MCF-7 human breast cancer cells (5×10^5 cells/ml) (Table 29) were incubated for 24 h with 2, 6, 15, 18, 27 and 45 base sequences containing A, C, G and T. The cells were collected and centrifuged and cell cycle stage was determined.

[9] = system: EL-4 murine T lymphoma cells; experiment: Inhibition of EL-4 cell proliferation (MTT); type: cell-based; conditions: 100 μg/ml, 48 h
Procedure: as §1, §2
EL-4 murine lymphoma T cells are a suspension tumor model. EL-4 murine lymphoma T cells were incubated with 6, 18, 27 and 33 base GT sequences and with a 15 base ACG sequence (Table 18).

[10] = system: MCF-7 human breast cancer cells; experiment: Inhibition of MCF-7 cell proliferation (MTT); type: cell-based; conditions: 100 μg/ml, 48 h, 5×10^5 cells/ml
In short: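 Cells at 2.5×10^5 cells/ml (GT 3- and 6-base series at 5×10^5 cells/ml) treated with 100 μg/ml of 2-45-base oligonucleotide sequences versus untreated control for 48 h at 37 °C, 5% CO2. Proliferation read by MTT reduction at 570 nm.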

[11] = system: LNCaP human prostate cancer cells; experiment: Inhibition of LNCaP cell proliferation (MTT); type: cell-based; conditions: 100 μg/ml, 48 h, 5×10^5 cells/ml
Procedure: as §1, §2
LNCaP prostate cancer cells are a TGF-beta 1 receptor negative, […], metastatic human solid tumor model. LNCaP cells (5×10^5 cells/ml) were incubated with 6 base GT sequences (Table 9).

T1 sequence (O14746 whole entry): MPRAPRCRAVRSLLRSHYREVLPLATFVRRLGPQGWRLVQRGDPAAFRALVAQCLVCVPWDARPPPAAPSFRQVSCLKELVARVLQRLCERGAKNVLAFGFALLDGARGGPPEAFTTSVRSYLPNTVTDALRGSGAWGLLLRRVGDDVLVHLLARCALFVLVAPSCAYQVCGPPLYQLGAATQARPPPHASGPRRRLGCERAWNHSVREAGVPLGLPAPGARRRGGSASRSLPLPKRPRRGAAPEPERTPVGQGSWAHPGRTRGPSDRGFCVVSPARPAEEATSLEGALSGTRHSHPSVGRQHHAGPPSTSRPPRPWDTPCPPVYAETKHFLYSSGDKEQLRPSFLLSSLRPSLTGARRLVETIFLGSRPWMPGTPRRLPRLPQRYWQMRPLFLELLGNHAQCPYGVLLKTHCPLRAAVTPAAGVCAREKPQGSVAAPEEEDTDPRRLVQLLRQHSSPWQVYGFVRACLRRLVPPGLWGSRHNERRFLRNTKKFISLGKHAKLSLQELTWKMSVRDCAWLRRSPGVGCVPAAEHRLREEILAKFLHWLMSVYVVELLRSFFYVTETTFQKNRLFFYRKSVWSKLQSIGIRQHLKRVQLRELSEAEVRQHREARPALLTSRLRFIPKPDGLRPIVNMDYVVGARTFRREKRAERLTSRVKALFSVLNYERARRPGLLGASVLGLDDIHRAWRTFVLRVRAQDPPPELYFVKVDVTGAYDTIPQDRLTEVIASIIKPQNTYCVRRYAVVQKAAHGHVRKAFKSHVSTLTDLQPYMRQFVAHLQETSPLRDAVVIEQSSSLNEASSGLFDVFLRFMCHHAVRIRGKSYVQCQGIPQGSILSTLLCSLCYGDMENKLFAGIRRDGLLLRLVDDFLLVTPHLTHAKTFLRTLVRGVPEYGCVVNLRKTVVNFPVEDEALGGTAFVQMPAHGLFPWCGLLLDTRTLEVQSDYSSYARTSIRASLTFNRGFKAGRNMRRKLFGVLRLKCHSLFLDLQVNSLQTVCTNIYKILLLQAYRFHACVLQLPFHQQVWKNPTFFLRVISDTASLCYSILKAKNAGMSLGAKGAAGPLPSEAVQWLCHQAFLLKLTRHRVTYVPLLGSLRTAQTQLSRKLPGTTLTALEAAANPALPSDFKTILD

| Sequence | ↑ IL-6 (fold increase treated vs control cells) [1] [x] | ↑ IL-12 (fold increase treated vs control cells) [1] [x] | inhibition of IMC tumor growth [2] [%] | % INHIBITION of Jurkat human leukemia T cell proliferation [3] [%] | % of cells in phase: G0/G1 [6] [%] | % of cells in phase: G2/M [6] [%] | % of cells in phase: SE [6] [%] | % of cells in phase: SL [6] [%] | % of cells in phase: SM [6] [%] | Arrest (cell cycle) [6] | also measured |
| --- | --- | --- | --- | --- | --- | --- | --- | --- | --- | --- | --- |
| ACCGATGACGTCGCCGGTGACGGCAACACGACGGCCACCGTGCTG (unmodified DNA) [BCG A-4, reference compound] | 1.8 | 0.9 | 37 | 9 | – | – | – | – | – | – | – |
| TTAGGG (phosphodiester backbone) [SEQ ID NO:49, reference compound] | 6.7 | 2.0 | – | 45 | 24.6 | 12.8 | 37.2 | 5.9 | 19.5 | Mid SM | anti-telomerase activity ([4]; listed as SEQ ID NO:49-phosphodiester): Neither GT SEQ ID NO:25-phosphorothioate nor GT SEQ ID NO:49-phosphodiester showed any anti-telomerase actvity; % INHIBITION of OVCAR-3 human ovarian cancer cell proliferation [5]: 15%; % INHIBITION of SK-OV-3 human ovarian cancer cell proliferation [7]: 11%; % cells in phase: G0/G1 [8]: 20.0%; % cells in phase: G2/M [8]: 15.0%; % cells in phase: SE [8]: 18.6%; % cells in phase: SL [8]: 20.7%; % cells in phase: SM [8]: 25.7%; Arrest (cell cycle) [8]: Mid SM |
| GGGTGG [SEQ ID NO:25 phosphorothioate] | – | 0.0 | – | 0 | 34.9 | 24.7 | 14.8 | 10.6 | 15.0 | None | anti-telomerase activity [4]: Neither GT SEQ ID NO:25-phosphorothioate nor GT SEQ ID NO:49-phosphodiester showed any anti-telomerase actvity; % INHIBITION of EL-4 murine T lymphoma cell proliferation [9]: −8%; % INHIBITION of MCF-7 human breast cancer cell proliferation [10]: 12%; % INHIBITION of LNCaP human prostate cancer cell proliferation [11]: −8%; ↑ IL-12 (fold increase treated vs control cells) ([1]; listed as GsGsGsTsGsGs): 0 x |
| AAAAGAAGTGGGGTGCCCCCACGATCACCAACGATGGTGTGTCCA (unmodified DNA) [BCG A-2, reference compound] | 3.9 | 1.6 | 88 | 19 | – | – | – | – | – | – | – |

Reference: patent publication US20070213291A1, “Therapeutically useful synthetic oligonucleotides” (priority 1999, published 2007)
